From paper PMC9223267, “Serine hydroxymethyltransferase as a potential target of antibacterial agents acting synergistically with one-carbon metabolism-related inhibitors” (Communications Biology, 2022)
Where “and” joins values, the source holds several entries; their conditions need not be identical. Equal values may be shown once. Entries after “also recorded” stand apart in the source; their conditions may differ. Read-outs that look alike come from different tables or passages of the source.

Assays:
E. faecium [1] = experiment: Antibacterial activity evaluation (turbidity, OD600); type: cell-based, Enterococcus faecium (JCM5804); details: Enterococcus faecium
Procedure: (§1) E. faecium and E. faecalis were diluted to turbidity equivalents that matched 1.0 McFarland (McF) standard in distilled water (S. aureus and E. coli were also diluted to 0.5 McF), and additionally diluted 1:200 in Mueller–Hinton (MH) broth. The designated concentrations of the tested compounds were prepared by ten-fold serial dilutions directly in 96-well microtiter plates (IWAKI, Shizuoka, Japan), as previously described. […] The other compounds were serially diluted from 20 μM downwards (final concentration, 10 μM). […] Positive control wells included bacteria without any compound, and the negative control wells only contained MH broth. […] The optical density at 600 nm (OD600) was measured using a GloMax microtiter plate reader (Promega, WI, USA), and the EC50 values of each test compound and standard error were calculated by Microsoft Excel function, AVERAGE and STDEV/SQRT.

efmSHMT [2] = biological target: efmSHMT (Enterococcus faecium, UniProt I3U4H4, M1V); experiment: biochemical; type: binding; details: 5 μM efmSHMT; 10 mM Gly and 100 μM Ser; Cheng-Prusoff
Procedure: After adding Me-THF, the efmSHMT solution was incubated for 30 min at room temperature. The optical density at 500 and 600 nm (OD500 and OD600) were then measured using a nanodrop spectrophotometer[24],[25]. OD600 was used as the background. After detection, each concentration of inhibitor was added to the efmSHMT solution and incubated for 30 min at room temperature. OD500 and OD600 were measured. The relative OD500 intensity was calculated as relative OD500 = (OD500 – OD600)/(MAXOD500 – OD600), where MAXOD500 is the average OD500 value in the presence of 1000, 2000 and 4000 μM Me-THF without inhibitors. […] Here, IC50 is the concentration of inhibitor added to the efmSHMT solution and [Me-THF] is the EC50 in the presence of the inhibitor concentration. [EC50 without inhibitor] is the EC50 of Me-THF in the absence of the inhibitor.

E. faecium [3] = experiment: Antibacterial assay with an excess concentration of biomolecules (Ser, Gly, inosine, dT, FA); type: cell-based, Enterococcus faecium (JCM5804)
Procedure: as §1
The ratio of the control EC50 (no competitors added) to the experimental EC50 (competitors added) was calculated for each test substance.

E. faecium [4] = experiment: Bacterial viability assay (Microbial Viability Assay Kit-WST, OD450); type: cell-based, Enterococcus faecium; details: for Relative bacterial viability: single values
Procedure: Living E. faecium were determined using the Microbial Viability Assay Kit-WST (DOJINDO, Tokyo, Japan). […] Positive control wells included bacteria seeded into MH broth without compounds, and the negative control wells contained MH broth only. […] Five microlitres of the colouring reagent were added to each well of the 96-well plate every 2 h after starting incubation with each compound.

S. aureus = experiment: Antibacterial activity evaluation (turbidity, OD600); type: cell-based, Staphylococcus aureus (ATCC29213); details: Staphylococcus aureus, S. aureus ATCC29213
Procedure: as §1

efmSHMT [5] = type: binding, Enterococcus faecium; details: DSF; final drug concentration 50 μM
Procedure: Protein samples were prepared as 20 μL aliquots containing 0.1 mg/mL protein (efmSHMT/ecSHMT), 1 μL of the ligand in DMSO (final drug concentration, 50 μM) and 2% or 4% SYPRO Orange (Invitrogen, MA, USA). […] Melting points were evaluated as the half-point of the maximum intensity of each curve.

Caski cells = experiment: Cell cytotoxicity assay (Cell Counting Kit-8, 5 days); type: cell-based, human; details: with each cell line (Caski, Hep-2 and Calu-3)
Procedure: After serial dilution, 100 μL of FBS-containing medium including the cells was added to each well of the plate. […] All CC50 determining assays were conducted in duplicate or triplicate[39],[40].

E. coli = experiment: Antibacterial activity evaluation (turbidity, OD600); type: cell-based, Escherichia coli (ATCC25922); details: Escherichia coli, E. coli ATCC25922
Procedure: as §1

E. faecalis = experiment: as above; type: cell-based, Enterococcus faecalis (JCM7783); details: Enterococcus faecalis, E. faecalis JCM7783
Procedure: as §1

[6] = Enterococcus faecium, JCM5804, E. faecium JCM5804, 1 mM Inosine, read-out: EC50
[7] = Enterococcus faecium, JCM5804, E. faecium JCM5804, 1 mM Inosine, read-out: pEC50 ± S.E. (converted)
[8] = Enterococcus faecium, JCM5804, E. faecium JCM5804, 1 mM deoxythymidine, read-out: EC50
[9] = Enterococcus faecium, JCM5804, E. faecium JCM5804, 1 mM deoxythymidine, read-out: pEC50 ± S.E. (converted)
[10] = Enterococcus faecium, JCM5804, E. faecium JCM5804, 10 mM Glycine, read-out: EC50
[11] = Enterococcus faecium, JCM5804, E. faecium JCM5804, 10 mM Glycine, read-out: pEC50 ± S.E. (converted)
[12] = Enterococcus faecium, JCM5804, E. faecium JCM5804, 100 mM Serine, read-out: EC50
[13] = Enterococcus faecium, JCM5804, E. faecium JCM5804, 100 mM Serine, read-out: pEC50 ± S.E. (converted)
[14] = Enterococcus faecium, JCM5804, E. faecium JCM5804, 0.1 M folate, read-out: EC50
[15] = Enterococcus faecium, JCM5804, E. faecium JCM5804, 0.1 M folate, read-out: pEC50 ± S.E. (converted)
[16] = read-out: pEC50 ± S.E. (converted)

efmSHMT (Enterococcus faecium, UniProt I3U4H4, M1V), sequence (I3U4H4 whole entry M1V): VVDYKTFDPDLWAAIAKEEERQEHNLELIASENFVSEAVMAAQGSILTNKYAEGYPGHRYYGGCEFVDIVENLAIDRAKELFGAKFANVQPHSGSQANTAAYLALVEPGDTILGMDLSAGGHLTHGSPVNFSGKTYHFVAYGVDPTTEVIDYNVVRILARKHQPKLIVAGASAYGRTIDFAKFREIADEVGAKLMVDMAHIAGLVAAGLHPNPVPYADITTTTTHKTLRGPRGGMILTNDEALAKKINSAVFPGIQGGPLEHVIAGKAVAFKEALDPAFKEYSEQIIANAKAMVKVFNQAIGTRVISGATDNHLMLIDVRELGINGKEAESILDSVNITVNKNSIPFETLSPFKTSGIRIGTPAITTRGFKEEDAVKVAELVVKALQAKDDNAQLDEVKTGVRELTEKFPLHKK

Row | SMILES | Ki (efmSHMT [2]) | EC50 (E. faecium [3]; [6]) [µM] | EC50 (E. faecium [3]; [7]) [µM] | EC50 (E. faecium [3]; [8]) [µM] | EC50 (E. faecium [3]; [9]) [µM] | EC50 (E. faecium [3]; [10]) [µM] | EC50 (E. faecium [3]; [11]) [µM] | EC50 (E. faecium [3]; [12]) [µM] | EC50 (E. faecium [3]; [13]) [µM] | EC50 (E. faecium [3]; [14]) [µM] | EC50 (E. faecium [3]; [15]) [µM] | EC50 (S. aureus; read-out: EC50) [µM] | EC50 (S. aureus; [16]) [µM] | ΔTm (thermal stability of efmSHMT) (efmSHMT [5]) | selectivity index (S.I.): CC50 against each cell line / EC50 against E. faecium (Caski cells) | EC50 (E. coli; read-out: EC50) [µM] | EC50 (E. coli; [16]) [µM] | EC50 (E. faecalis; read-out: EC50) [µM] | EC50 (E. faecalis; [16]) [µM] | other results
1 | CN(Cc1cnc2nc(N)nc(N)c2n1)c1ccc(C(=O)N[C@@H](CCC(=O)O)C(=O)O)cc1 [MTX, methotrexate] | did not change the OD500; also recorded: did not bind | 0.0024 | 0.00251 | > 100 | > 100 | 0.0028 | 0.00251 | 0.0026 | 0.00251 | 8.5 | 7.94 | > 100 | > 100 | did not stabilise efmSHMT significantly | less selective than (+)-SHIN-1, TMP and PMX | > 100 | > 100 | 14 | 15.8 | EC50 (E. faecium [1]; JCM5804, E. faecium JCM5804, read-out: EC50): 3.6 nM; EC50 (E. faecium [1]; JCM5804, E. faecium JCM5804, read-out: pEC50 ± S.E. (converted)): 3.98 nM; Relative bacterial viability (E. faecium [4]; 2 nM, 0 hours): 0.02233 and 0.0177 and 0.02678 and 0.02266 and 0.01761 and 0.017 and 0.0195 and 0.01799; Relative bacterial viability (E. faecium [4]; 2 nM, 2 hours): 0.03007 and 0.03198 and 0.04012 and 0.03501 and 0.02569 and 0.02735 and 0.02947 and 0.02784; Relative bacterial viability (E. faecium [4]; 2 nM, 6 hours): 0.8015 and 0.7552 and 0.8948 and 0.8943 and 0.5687 and 0.5754 and 0.5661 and 0.5425; Relative bacterial viability (E. faecium [4]; 2 nM, 8 hours): 0.6487 and 0.7535 and 0.8184 and 0.7635 and 0.7144 and 0.6621 and 0.6673 and 0.7812; Relative bacterial viability (E. faecium [4]; 2 nM, 10 hours): 0.7053 and 0.6673 and 0.7036 and 0.6902; Relative bacterial viability (E. faecium [4]; 2 nM, 12 hours): 0.8527 and 0.9211 and 0.863 and 0.9139 and 0.786 and 0.828 and 0.8102 and 0.8671; Relative bacterial viability (E. faecium [4]; 20 nM, 0 hours): 0.02944 and 0.02382 and 0.02242 and 0.01876 and 0.02362 and 0.02115 and 0.02309 and 0.02203; Relative bacterial viability (E. faecium [4]; 20 nM, 2 hours): 0.04282 and 0.03899 and 0.03091 and 0.03386 and 0.03007 and 0.02907 and 0.03321 and 0.0351; Relative bacterial viability (E. faecium [4]; 20 nM, 4 hours): 0.09761 and 0.08481 and 0.06333 and 0.08156 and 0.05837 and 0.05915 and 0.09197 and 0.0766; Relative bacterial viability (E. faecium [4]; 20 nM, 6 hours): 0.09779 and 0.1224 and 0.09629 and 0.09367 and 0.1125 and 0.1318 and 0.1324 and 0.1243; Relative bacterial viability (E. faecium [4]; 20 nM, 8 hours): 0.09766 and 0.1007 and 0.1109 and 0.1082 and 0.07161 and 0.0792 and 0.1047 and 0.1064; Relative bacterial viability (E. faecium [4]; 20 nM, 10 hours): 0.1166 and 0.1064 and 0.08667 and 0.1003 and 0.08673 and 0.1012 and 0.1144 and 0.09737; Relative bacterial viability (E. faecium [4]; 20 nM, 12 hours): 0.09054 and 0.1107 and 0.09534 and 0.1014 and 0.09177 and 0.09711 and 0.09672 and 0.1035; EC50 (E. faecium [4]; Enterococcus faecium, relative bacterial viability after 14 h incubation): 8.4 nM
2 | Cc1n[nH]c2c1C(c1cc(N3CCCC3)cc(C(F)(F)F)c1)(C(C)C)C(C#N)=C(N)O2 (centres unmarked) [SHMT-IN-2] | did not change the OD500; also recorded: did not bind | 3.1 | 3.16 | 2.9 | 3.16 | 3 | 3.16 | 4 | 3.98 | 2.9 | 3.16 | ≥ 100 | ≥ 100 | did not stabilise efmSHMT significantly | less selective than (+)-SHIN-1, TMP and PMX | > 100 | > 100 | > 100 | > 100 | EC50 (E. faecium [1]; E. faecium JCM5804, read-out: EC50): 2900 nM; EC50 (E. faecium [1]; E. faecium JCM5804, read-out: pEC50 ± S.E. (converted)): 3160 nM; EC50 (E. faecium [3]; E. faecium JCM5804, 0.1 M folate): independent of FA; Relative bacterial viability (E. faecium [4]; 40 μM, 0 hours): 0.01862 and 0.0174 and 0.0205 and 0.01931 and 0.02646 and 0.02349 and 0.02966 and 0.03101; Relative bacterial viability (E. faecium [4]; 40 μM, 2 hours): 0.03093 and 0.0302 and 0.02505 and 0.02814 and 0.02877 and 0.02998 and 0.036 and 0.03921; Relative bacterial viability (E. faecium [4]; 40 μM, 6 hours): 0.3579 and 0.3453 and 0.3941 and 0.3482 and 0.392 and 0.3797 and 0.4394 and 0.4307; Relative bacterial viability (E. faecium [4]; 40 μM, 8 hours): 0.4949 and 0.5317 and 0.4381 and 0.3998 and 0.3519 and 0.3235 and 0.4823 and 0.3754; Relative bacterial viability (E. faecium [4]; 40 μM, 10 hours): 0.5237 and 0.542 and 0.4699 and 0.39 and 0.5132 and 0.4488 and 0.4691 and 0.4904; Relative bacterial viability (E. faecium [4]; 40 μM, 12 hours): 0.55 and 0.5489 and 0.5001 and 0.5313 and 0.5571 and 0.5294 and 0.6254 and 0.5482; Relative bacterial viability (E. faecium [4]; 80 μM, 0 hours): 0.02012 and 0.02269 and 0.02791 and 0.02552 and 0.02349 and 0.02305 and 0.03984 and 0.03245; Relative bacterial viability (E. faecium [4]; 80 μM, 2 hours): 0.03305 and 0.03431 and 0.03897 and 0.0377 and 0.0302 and 0.03755 and 0.04307 and 0.03606; Relative bacterial viability (E. faecium [4]; 80 μM, 4 hours): 0.03849 and 0.03773 and 0.03537 and 0.04204 and 0.0354 and 0.0391 and 0.04337 and 0.03653; Relative bacterial viability (E. faecium [4]; 80 μM, 6 hours): 0.04463 and 0.04595 and 0.05326 and 0.05339 and 0.04373 and 0.04075 and 0.04467 and 0.04119; Relative bacterial viability (E. faecium [4]; 80 μM, 8 hours): 0.04711 and 0.04935 and 0.05233 and 0.0524 and 0.04018 and 0.04838 and 0.04621 and 0.04757; Relative bacterial viability (E. faecium [4]; 80 μM, 10 hours): 0.04986 and 0.05353 and 0.04783 and 0.04892; Relative bacterial viability (E. faecium [4]; 80 μM, 12 hours): 0.04784 and 0.03996 and 0.04751 and 0.04436 and 0.04726 and 0.03481 and 0.04716 and 0.0494; EC50 (bacterial viability) (E. faecium [4]; relative bacterial viability after 14 h incubation): weaker activity than the turbidity detection result
